From patent US20090163481A1, “PPAR-DELTA LIGANDS AND METHODS OF THEIR USE” (priority 2007, published 2009)

What was measured:
PPARγ LBD = molecular target: T1, PPARγ LBD (Homo sapiens, UniProt P37231); assay: PPARγ LBD binding and transactivation (ciglitazone competition); assay type: cell-based; conditions: data not shown
T1 construct: expressed in transfected cells; host or cells: U2-OS (inferred from the general testing procedure)
T1 sequence (P37231 238-503 limits assumed): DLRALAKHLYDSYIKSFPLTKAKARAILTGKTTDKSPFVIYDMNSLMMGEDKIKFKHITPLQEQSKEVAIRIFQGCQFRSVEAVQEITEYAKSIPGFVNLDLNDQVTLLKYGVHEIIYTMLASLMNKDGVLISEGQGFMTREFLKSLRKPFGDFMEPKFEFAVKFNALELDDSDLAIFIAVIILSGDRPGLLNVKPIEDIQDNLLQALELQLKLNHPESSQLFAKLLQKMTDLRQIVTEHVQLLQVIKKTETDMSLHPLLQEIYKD
Source text: Based on the cellular and molecular data generated, treatment of prostate cancer cells with SR 13904 attenuates a number of pro-tumorigenic activities that are likely to be associated with PPARδ. Furthermore, this nuclear receptor is now believed to be a master regulator of nuclear receptors, including both PPARγ and PPARα, and as such the inhibition of PPARδ activity modulates the other target transcription factors.

Huh7 = assay: Alamar Blue proliferation assay, Huh7; assay type: cell-based; conditions: Homo sapiens, Huh-7, 96 h; Huh7, 0-40 μM, 0.5% serum, 4 days; read-out: IC50 for growth inhibition
Procedure: The effect of SR13904 on the proliferation of these cell lines was determined by an Alamar Blue assay. Exponentially growing cells were treated with a range of SR13904 concentrations (0-40 μM; in 0.5% serum) over 4 days and proliferation curves were determined. The IC50 values for growth inhibition by SR13904 for each cell line were determined. […] In addition, colony formation assays with SR13904 were performed with both A549 and Huh7 cells.

Akt1 = assay: Western analysis of phosphorylated Akt1 in growth factor-deprived PC-3 cultures; assay type: cell-based, human; conditions: PC-3, 48 h growth factor withdrawal; VLDL 2 μg/ml + LPL 2 μg/ml and/or 10 μM SR13904
Procedure: The ability of SR 13904 to regulate the cell survival Akt1 signaling pathway was assessed. PC-3 cultures were exposed to apoptosis-inducing growth factor deprivation and harvested for Western analysis of phosphorylated Akt1 and total PTEN protein. PTEN is known to inhibit the Akt1 pathway at the level of PI3-kinase. […] Subsequent studies confirmed this conclusion.
Referring to FIG. 8, PC-3 cells were exposed to 48 h of growth factor withdrawal with and without VLDL SR 13904 (2 μg/ml VLDL+2 μg/ml LPL and/or 10 μM SR13904). Standard western analysis for phospho-serine 473, phospho-tyrosine 308, and PTEN were performed. GAPDH was used as a control.

## Cc1cc(SCc2sc(-c3cccc4ccccc34)nc2C)ccc1OCC(=O)O [SR 13904]
PPARγ LBD
  interference with ciglitazone binding to PPARγ LBD and transactivation: interfere with ciglitazone binding
Huh7
  IC50: 8 to 10 µM
Akt1
  phosphorylation of serine 473 and tyrosine 308 on the Akt1 protein: completely abolished
